{
  "source": "paper PMC8635125",
  "about": "“A Novel Dibenzoxazepine Attenuates Intracellular Salmonella Typhimurium Oxidative Stress Resistance” (Microbiology Spectrum, 2021)",
  "key": {"[1]": {"test_system": "intracellular S. Typhimurium in RAW264.7 macrophages", "experiment": "microbe, parasite or virus in culture", "type": "cell-based, Salmonella enterica serovar Typhimurium", "settings": "for survival of intracellular Salmonella in macrophages, antibiotic alone: RAW264.7, 24 h", "method": "(§1) Overnight cultures of RFP-expressing S. Typhimurium were prepared for infection by 1:100 dilution in fresh LB broth and incubation for 2 h at 37°C. The bacteria were then collected by centrifugation at 6,000 × g for 3 min and suspended in phosphate-buffered saline (PBS; pH 7.2) to an optical density of 0.6 at 600 nm, which was equivalent to 5 × 10^8 CFU/mL. RAW264.7 macrophages were seeded in 96-well black clear-bottom plates (Greiner) and incubated for 20 h followed by infection with RFP-expressing S. Typhimurium at a multiplicity of infection (MOI) of 50 for 1 h. […] Afterward, the cells were washed and stained with CellTracker Green (Thermo Fisher Scientific) for 30 min in serum-free DMEM followed by fixation in 3.7% formaldehyde (Sigma-Aldrich) for 20 min and stained with 0.2 mg/L DAPI (4′,6-diamidino-2-phenylindole; AAT Bioquest) for 30 min. Images of individual wells were captured and analyzed using a high-content imaging system (ImageXpress Micro 4; Molecular Devices). The CC50 and 50% effective concentration (EC50) values against intracellular bacteria of each compound were determined using CalcuSyn software (Biosoft)."}, "[2]": {"test_system": "S. Typhimurium ATCC 14028", "experiment": "MIC assay (broth microdilution)", "type": "cell-based, Salmonella Typhimurium", "settings": "for MIC: Salmonella enterica; for R/I/S: ATCC 14028, CLSI criteria", "method": "(§2) The minimal inhibitory concentration (MIC) of each test compound against the individual bacterial strains was determined by the broth microdilution method following the guidelines recommended by the Clinical and Laboratory Standards Institute (CLSI) ([27])."}, "[3]": {"test_system": "S. Typhimurium NL08.10", "experiment": "MIC assay (broth microdilution)", "type": "cell-based, Salmonella Typhimurium", "settings": "Table S1(A); for MIC: Salmonella enterica, TYPHIMURIUM, NL08.10, read-out: MIC; for R/I/S: NL08.10, CLSI criteria", "method": "as §2"}, "[4]": {"test_system": "S. Typhimurium 0911R", "experiment": "microbe, parasite or virus in culture", "type": "cell-based, Salmonella Typhimurium", "settings": "for MIC: Salmonella enterica, TYPHIMURIUM; for R/I/S: Table S1(A), 0911R, CLSI criteria", "method": "as §2"}, "[5]": {"test_system": "ROS levels in Salmonella-infected RAW264.7 cells", "experiment": "Analysis of ROS in macrophages (H2DCFDA)", "type": "cell-based, murine", "settings": "1 h; SW14 at concentrations up to 8 μM", "method": "RAW264.7 macrophages were seeded in 96-well black plates and infected by S. Typhimurium ATCC 14028 at an MOI of 25 for 1 h. After infection, the cells were washed, exposed to 100 mg/L gentamicin for 1 h, washed with warm Krebs-Ringer phosphate buffer (KRP buffer; 120 mM NaCl, 5 mM KCl, 1.7 mM KH2PO4, 8.3 mM Na2HPO4, 10 mM glucose, 1 mM CaCl2, 1.5 mM MgCl2, pH 7.3) and stained with H2DCFDA at 37°C with 5% CO2 for 45 min. The cells were then washed with KRP buffer and treated with SW14 or PMA at the desired concentrations in KRP buffer with 10% FBS. Fluorescence signals at 488/525 nm (excitation/emission) were measured using a SpectraMax M5 Microplate Reader (Molecular Devices)."}, "[6]": {"test_system": "S. Typhimurium SA10", "experiment": "MIC assay (broth microdilution)", "type": "cell-based, Salmonella Typhimurium", "settings": "Table S1(B); for MIC: Salmonella enterica, TYPHIMURIUM, SA10; for R/I/S: SA10, CLSI criteria", "method": "as §2"}, "[7]": {"test_system": "S. Typhimurium SB10", "experiment": "MIC assay (broth microdilution)", "type": "cell-based, Salmonella Typhimurium", "settings": "Table S1(B); for MIC: Salmonella enterica, TYPHIMURIUM, SB10, read-out: MIC; for R/I/S: SB10, CLSI criteria", "method": "as §2"}, "[8]": {"experiment": "HCA cytotoxicity toward infected macrophages (nuclear staining)", "type": "cell-based, murine", "settings": "mouse, RAW264.7 macrophages infected with S. Typhimurium, infected RAW264.7 cells, read-out: 50% cytotoxic concentration (CC50) toward macrophages", "method": "as §1"}, "[9]": {"settings": "Table S1(A), ATCC 14028, read-out: MIC"}, "[10]": {"settings": "Table S2, CAMH medium, read-out: MIC"}, "[11]": {"settings": "Table S2, LB medium, read-out: MIC"}, "[12]": {"settings": "Table S2, LPM medium, read-out: MIC"}},
  "note": "Read-outs that look alike come from different tables or passages of the source.",
  "data": [
    {"smiles": "C=CC1=C(C(=O)O)N2C(=O)[C@@H](NC(=O)/C(=N\\OCC(=O)O)c3csc(N)n3)[C@H]2SC1", "note": "[cefixime]", "values": [
      {"measurement": "survival of intracellular Salmonella in macrophages, antibiotic alone", "setting": "[1]; HCA", "value": "inhibited the survival of intracellular Salmonella in macrophages in a dose-dependent manner"}
    ]},
    {"smiles": "[H]/N=C(/N)N[C@H]1[C@H](O)[C@@H](O)[C@H](O[C@@H]2O[C@@H](C)[C@](O)(C=O)[C@H]2O[C@@H]2O[C@@H](CO)[C@H](O)[C@@H](O)[C@@H]2NC)[C@@H](N/C(N)=N\\[H])[C@@H]1O", "note": "[Streptomycin]", "values": [
      {"measurement": "MIC", "setting": "[2]; [9]", "value": 32, "unit": "mg/L"},
      {"measurement": "MIC", "setting": "[3]", "value": "> 64", "unit": "mg/L"},
      {"measurement": "MIC", "setting": "[4]", "value": "> 64", "unit": "mg/L"}
    ]},
    {"smiles": "CO[C@H]1/C=C/O[C@@]2(C)Oc3c(C)c(O)c4c(O)c(c(/C=N/N5CCN(C)CC5)c(O)c4c3C2=O)NC(=O)/C(C)=C\\C=C\\[C@H](C)[C@H](O)[C@@H](C)[C@@H](O)[C@@H](C)[C@H](OC(C)=O)[C@@H]1C", "note": "[Rifampicin]", "values": [
      {"measurement": "MIC", "setting": "[2]; [10]", "value": 16, "unit": "mg/L"},
      {"measurement": "MIC", "setting": "[2]; [11]", "value": 16, "unit": "mg/L"},
      {"measurement": "MIC", "setting": "[2]; [12]", "value": 4, "unit": "mg/L"}
    ]},
    {"smiles": "O=C(O)c1cn(C2CC2)c2cc(N3CCNCC3)c(F)cc2c1=O", "note": "[Ciprofloxacin, ciprofloxacin]", "values": [
      {"measurement": "survival of intracellular Salmonella in macrophages, antibiotic alone", "setting": "[1]; HCA", "value": "inhibited the survival of intracellular Salmonella in macrophages in a dose-dependent manner"}
    ]},
    {"smiles": "CCCCCCCCCCCCCC(=O)O[C@@H]1[C@@H](C)[C@@]2(O)[C@@H](C=C(CO)C[C@]3(O)C(=O)C(C)=C[C@@H]23)[C@@H]2C(C)(C)[C@]12OC(C)=O", "note": "[PMA, phorbol 12-myristate 13-acetate]", "values": [
      {"measurement": "ROS level (H2DCFDA fluorescence signal) in infected macrophages", "setting": "[5]", "value": "significantly elevated"}
    ]},
    {"smiles": "CC1COc2c(N3CCN(C)CC3)c(F)cc3c(=O)c(C(=O)O)cn1c23", "note": "(stereo not drawn) [Ofloxacin]", "values": [
      {"measurement": "MIC", "setting": "[2]", "value": "< 0.125", "unit": "mg/L"},
      {"measurement": "R/I/S", "setting": "[2]; Table S1(B)", "value": "S"},
      {"measurement": "MIC", "setting": "[6]", "value": 8, "unit": "mg/L"},
      {"measurement": "R/I/S", "setting": "[6]", "value": "R"},
      {"measurement": "MIC", "setting": "[7]", "value": 8, "unit": "mg/L"},
      {"measurement": "R/I/S", "setting": "[7]", "value": "R"}
    ]},
    {"smiles": "CN1CCN(C2=Nc3ccccc3Oc3ccc(Cl)cc32)CC1", "note": "[Loxapine, loxapine]", "values": [
      {"measurement": "selectivity index (SI; CC50/EC50)", "setting": "[1]; CC50 RAW264.7 / EC50 intracellular Salmonella", "value": 16.3},
      {"measurement": "EC50", "setting": "[1]; Salmonella enterica, RFP-expressing S. Typhimurium in RAW264.7, 24 h, with gentamicin 20 mg/L, HCA, read-out: 50% effective concentration (EC50) against intracellular Salmonella", "value": 5.4, "unit": "µM"},
      {"measurement": "CC50 at 24 h", "setting": "[8]", "value": 88.2, "unit": "µM"}
    ]},
    {"smiles": "CN[C@H](CC(C)C)C(=O)N[C@H]1C(=O)N[C@@H](CC(N)=O)C(=O)N[C@H]2C(=O)N[C@H]3C(=O)N[C@H](C(=O)N[C@H](C(=O)O)c4cc(O)cc(O)c4-c4cc3ccc4O)[C@H](O)c3ccc(c(Cl)c3)Oc3cc2cc(c3O[C@@H]2O[C@H](CO)[C@@H](O)[C@H](O)[C@H]2O[C@H]2C[C@](C)(N)[C@H](O)[C@H](C)O2)Oc2ccc(cc2Cl)[C@H]1O", "note": "[Vancomycin]", "values": [
      {"measurement": "MIC", "setting": "[2]; Table S2, CAMH medium", "value": 2050, "unit": "mg/L"},
      {"measurement": "MIC", "setting": "[2]; Table S2, LB medium", "value": 512, "unit": "mg/L"},
      {"measurement": "MIC", "setting": "[2]; Table S2, LPM medium", "value": 128, "unit": "mg/L"}
    ]},
    {"smiles": "CNC(C)C1CCC(N)C(OC2C(N)CC(N)C(OC3OCC(C)(O)C(NC)C3O)C2O)O1", "note": "(stereo not drawn) [Gentamicin, gentamicin]", "values": [
      {"measurement": "MIC", "setting": "[2]; [9]", "value": 2, "unit": "mg/L"},
      {"measurement": "MIC", "setting": "[2]; Table S1(B), ATCC 14028, read-out: MIC", "value": 2, "unit": "mg/L"},
      {"measurement": "R/I/S", "setting": "[2]; Table S1(A)", "value": "S"},
      {"measurement": "R/I/S", "setting": "[2]; Table S1(B)", "value": "S"},
      {"measurement": "MIC", "setting": "[3]", "value": 2, "unit": "mg/L"},
      {"measurement": "R/I/S", "setting": "[3]", "value": "S"},
      {"measurement": "MIC", "setting": "[6]", "value": 0.5, "unit": "mg/L"},
      {"measurement": "R/I/S", "setting": "[6]", "value": "S"},
      {"measurement": "MIC", "setting": "[7]", "value": 1, "unit": "mg/L"},
      {"measurement": "R/I/S", "setting": "[7]", "value": "S"},
      {"measurement": "R/I/S", "setting": "[4]", "value": "S"}
    ]},
    {"smiles": "Cn1cnc(N)c2ncnc1-2", "note": "[3-MA, 3-methyladenine]", "values": [
      {"measurement": "relative number of intracellular bacteria", "setting": "[1]; 3-MA 10 mM, infected RAW264.7", "value": "increased significantly"}
    ]},
    {"smiles": "CN(C)[C@@H]1C(O)=C(C(N)=O)C(=O)[C@@]2(O)C(O)=C3C(=O)c4c(O)cccc4[C@@](C)(O)[C@H]3C[C@@H]12", "note": "[Tetracycline]", "values": [
      {"measurement": "MIC", "setting": "[2]; [9]", "value": 8, "unit": "mg/L"},
      {"measurement": "R/I/S", "setting": "[2]; Table S1(A)", "value": "I"},
      {"measurement": "R/I/S", "setting": "[3]", "value": "R"},
      {"measurement": "R/I/S", "setting": "[4]", "value": "R"}
    ]},
    {"smiles": "CC1(C)S[C@@H]2[C@H](NC(=O)[C@H](N)c3ccccc3)C(=O)N2[C@H]1C(=O)O", "note": "[Ampicillin]", "values": [
      {"measurement": "MIC", "setting": "[2]; [9]", "value": 16, "unit": "mg/L"},
      {"measurement": "MIC", "setting": "[2]; [10]", "value": 4, "unit": "mg/L"},
      {"measurement": "MIC", "setting": "[2]; [11]", "value": 4, "unit": "mg/L"},
      {"measurement": "MIC", "setting": "[2]; [12]", "value": 1, "unit": "mg/L"},
      {"measurement": "R/I/S", "setting": "[2]; Table S1(A)", "value": "I"},
      {"measurement": "MIC", "setting": "[3]", "value": "> 64", "unit": "mg/L"},
      {"measurement": "R/I/S", "setting": "[3]", "value": "R"},
      {"measurement": "MIC", "setting": "[4]", "value": "> 64", "unit": "mg/L"},
      {"measurement": "R/I/S", "setting": "[4]", "value": "R"}
    ]},
    {"smiles": "O=C(N[C@H](CO)[C@H](O)c1ccc([N+](=O)[O-])cc1)C(Cl)Cl", "note": "[Chloramphenicol]", "values": [
      {"measurement": "MIC", "setting": "[2]; [9]", "value": 16, "unit": "mg/L"},
      {"measurement": "R/I/S", "setting": "[2]; Table S1(A)", "value": "I"},
      {"measurement": "MIC", "setting": "[3]", "value": 32, "unit": "mg/L"},
      {"measurement": "R/I/S", "setting": "[3]", "value": "R"},
      {"measurement": "R/I/S", "setting": "[4]", "value": "R"}
    ]}
  ]
}
